# How the values were obtained:
# [1] = tested on: patients with multiple sclerosis; test: adverse events reported by patients
# [2] = tested on: patients with multiple sclerosis; test: category-rating scales, patient reporting of secondary outcomes; format: in vivo, human; conditions: category rating scale
# [3] = tested on: patients with multiple sclerosis with problematic spasticity; test: Ashworth score of spasticity, randomized placebo-controlled study; format: in vivo, human; conditions: baseline to 13 weeks follow-up (visit 7)
# [4] = tested on: patients with multiple sclerosis; test: patient assessment of treatment benefit at visit 8; format: in vivo, human
structure (smiles),measurement,setting,value
"CCCCCc1cc(O)c2c(c1)OC(C)(C)[C@@H]1CCC(C)=C[C@@H]21 (relative stereo) [delta-9-THC, (6aR-trans)-6a,7,8,10a-tetrahydro-6,6,9-trimethyl-3-pentyl-6H-dibenzo[b,d]pyran-1-ol]",incidences of MS relapse,[1]; by comparison with placebo,greatly reduced
same,Adverse Event: Blocked/insertion of suprapubic catheter,[1]; number reported,0
same,Adverse Event: Constipation,[1]; number reported,0
same,Adverse Event: Grand mal seizure,[1]; number reported,0
same,Adverse Event: MS relapse or possible relapse,[1]; number reported,1
same,Adverse Event: Other,[1]; number reported,11
same,Adverse Event: Pneumonia,[1]; number reported,2
same,Adverse Event: Urinary tract infection,[1]; number reported,3
same,Depression: Deterioration,[2]; number of patients,42
same,Depression: Improvement,[2]; number of patients,36
same,Depression: Same,[2]; number of patients,47
same,Energy: Deterioration,[2]; number of patients,49
same,Energy: Improvement,[2]; number of patients,61
same,Energy: Same,[2]; number of patients,63
same,Irritability: Deterioration,[2]; number of patients,32
same,Irritability: Improvement,[2]; number of patients,37
same,Irritability: Same,[2]; number of patients,42
same,Pain: Deterioration,[2]; number of patients,22
same,Pain: Improvement,[2]; number of patients,64
same,Pain: Same,[2]; number of patients,43
same,Shake/tremor: Deterioration,[2]; number of patients,32
same,Shake/tremor: Improvement,[2]; number of patients,52
same,Shake/tremor: Same,[2]; number of patients,44
same,Sleep: Deterioration,[2]; number of patients,24
same,Sleep: Improvement,[2]; number of patients,71
same,Sleep: Same,[2]; number of patients,57
same,Spasms: Deterioration,[2]; number of patients,27
same,Spasms: Improvement,[2]; number of patients,81
same,Spasms: Same,[2]; number of patients,49
same,Spasticity: Deterioration,[2]; number of patients,47
same,Spasticity: Improvement,[2]; number of patients,89
same,Spasticity: Same,[2]; number of patients,40
same,Tiredness: Deterioration,[2]; number of patients,76
same,Tiredness: Improvement,[2]; number of patients,35
same,Tiredness: Same,[2]; number of patients,46
same,Depression: Deterioration,[2]; percent of patients,(34%)
same,Depression: Improvement,[2]; percent of patients,(29%)
same,Depression: Same,[2]; percent of patients,(38%)
same,Energy: Deterioration,[2]; percent of patients,(28%)
same,Energy: Improvement,[2]; percent of patients,(35%)
same,Energy: Same,[2]; percent of patients,(36%)
same,Irritability: Deterioration,[2]; percent of patients,(29%)
same,Irritability: Improvement,[2]; percent of patients,(33%)
same,Irritability: Same,[2]; percent of patients,(38%)
same,Pain: Deterioration,[2]; percent of patients,(17%)
same,Pain: Improvement,[2]; percent of patients,(50%)
same,Pain: Same,[2]; percent of patients,(33%)
same,Shake/tremor: Deterioration,[2]; percent of patients,(25%)
same,Shake/tremor: Improvement,[2]; percent of patients,(41%)
same,Shake/tremor: Same,[2]; percent of patients,(34%)
same,Sleep: Deterioration,[2]; percent of patients,(16%)
same,Sleep: Improvement,[2]; percent of patients,(47%)
same,Sleep: Same,[2]; percent of patients,(38%)
same,Spasms: Deterioration,[2]; percent of patients,(22%)
same,Spasms: Improvement,[2]; percent of patients,(49%)
same,Spasms: Same,[2]; percent of patients,(29%)
same,Spasticity: Deterioration,[2]; percent of patients,(27%)
same,Spasticity: Improvement,[2]; percent of patients,(51%)
same,Spasticity: Same,[2]; percent of patients,(23%)
same,Tiredness: Deterioration,[2]; percent of patients,(48%)
same,Tiredness: Improvement,[2]; percent of patients,(22%)
same,Tiredness: Same,[2]; percent of patients,(29%)
same,"Mean (SD) change in Ashworth score, upper-body muscle groups (baseline minus follow-up)",[3],0.48 (4.70)
same,"Symptom Improvement, Bladder: No",[4]; number of patients,97
same,"Symptom Improvement, Bladder: Yes",[4]; number of patients,67
same,"Symptom Improvement, Pain: No",[4]; number of patients,64
same,"Symptom Improvement, Pain: Yes",[4]; number of patients,64
same,"Symptom Improvement, Spasticity: No",[4]; number of patients,73
same,"Symptom Improvement, Tremor: No",[4]; number of patients,67
same,"Symptom Improvement, Tremor: Yes",[4]; number of patients,44
same,"Symptom Improvement, Bladder: No",[4]; percent of patients,59%
same,"Symptom Improvement, Bladder: Yes",[4]; percent of patients,40%
same,"Symptom Improvement, Pain: No",[4]; percent of patients,50%
same,"Symptom Improvement, Pain: Yes",[4]; percent of patients,50%
same,"Symptom Improvement, Spasticity: No",[4]; percent of patients,40%
same,"Symptom Improvement, Spasticity: Yes",[4]; percent of patients,60%
same,"Symptom Improvement, Tremor: No",[4]; percent of patients,60%
same,"Symptom Improvement, Tremor: Yes",[4]; percent of patients,40%

# Source: patent publication US20080181942A1, “Delta-9-THC compositions and methods for treating symptoms associated with multiple sclerosis” (University of Plymouth, priority 2006, published 2008)
